Source: ChEMBL document CHEMBL4376892, “Identification of Parthenolide Dimers as Activators of Pyruvate Kinase M2 in Xenografts of Glioblastoma Multiforme in Vivo” (J Med Chem, 2020)
Calls of active or inactive are those of the source. The calls are words filed in the database; no cut-off is given here.

Legend:
U-87 MG [1] = assay: Antiproliferative activity against human U87 cells assessed as reduction in cell viability after 72 hrs by MTT assay; type: functional, cell-based, U-87MG ATCC
SF-126 = assay: Antiproliferative activity against human SF126 cells assessed as reduction in cell viability after 72 hrs by MTT assay; type: functional, cell-based; details: SF-126, 72 h
[2] = Antiproliferative activity against human SHG44 cells assessed as reduction in cell viability after 72 hrs by MTT assay; type: functional, cell-based; details: SHG-44, 72 h
SUM-159-PT = assay: Antiproliferative activity against human SUM159 cells assessed as reduction in cell viability after 72 hrs by MTT assay; type: functional, cell-based
U-87 MG [3] = assay: Antimetastatic activity against human U87 cells assessed as reduction in cell migration at 2 uM after 24 hrs by crystal violet staining based transwell assay; type: functional; details: U-87MG ATCC
U-118-MG [4] = assay: Antimetastatic activity against human U118MG cells assessed as reduction in cell migration at 2 uM after 24 hrs by crystal violet staining based transwell assay; type: functional
Pyruvate kinase PKM [5] = target: T1, Pyruvate kinase PKM (Homo sapiens, UniProt P14618); assay: Inhibition of PKM2 dimer nuclear translocation in human U87 cells assessed as reduction in PKM2 accumulation in nucleus at 0.5 to 1 uM after 48 hrs by Western blot analysis; type: cell-based; details: U-87MG ATCC
T1 sequence (P14618 2-531 limits assumed): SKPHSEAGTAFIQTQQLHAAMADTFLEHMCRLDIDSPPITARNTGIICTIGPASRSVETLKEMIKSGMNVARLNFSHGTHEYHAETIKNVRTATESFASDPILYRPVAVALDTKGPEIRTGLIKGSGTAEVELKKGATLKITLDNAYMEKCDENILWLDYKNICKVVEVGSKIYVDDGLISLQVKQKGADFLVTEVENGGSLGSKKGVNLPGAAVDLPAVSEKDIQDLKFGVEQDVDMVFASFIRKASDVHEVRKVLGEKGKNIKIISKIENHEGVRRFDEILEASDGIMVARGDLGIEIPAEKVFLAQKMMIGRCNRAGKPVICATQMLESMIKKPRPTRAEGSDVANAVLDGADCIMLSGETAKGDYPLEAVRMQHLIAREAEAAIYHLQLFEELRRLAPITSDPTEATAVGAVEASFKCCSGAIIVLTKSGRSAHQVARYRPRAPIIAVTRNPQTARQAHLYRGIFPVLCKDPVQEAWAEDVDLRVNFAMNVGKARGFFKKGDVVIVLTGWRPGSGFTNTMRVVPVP

Pyruvate kinase PKM [6] = target: T1, Pyruvate kinase PKM; assay: Inhibition of PKM2 dimer nuclear translocation in human U118MG cells assessed as reduction in PKM2 accumulation in nucleus at 0.5 to 1 uM after 48 hrs by Western blot analysis; type: cell-based
Pyruvate kinase PKM [7] = target: T1, Pyruvate kinase PKM; assay: Activation of PKM2 in human U118MG cells assessed as increase in PKM2 tetramer formation at 0.5 to 1 uM after 48 hrs by chemical cross-linking based Western blot analysis; type: cell-based
U-87MG ATCC [8] = assay: Effect on IKK-beta protein expression in human U87 cells at 0.2 to 0.5 uM after 48 hrs by Western blot analysis; type: functional, cell-based
U-87MG ATCC [9] = assay: Effect on P65 protein expression in human U87 cells at 0.2 to 0.5 uM after 48 hrs by Western blot analysis; type: functional, cell-based
U-118-MG [10] = assay: Effect on P65 protein expression in human U118MG cells at 0.2 to 0.5 uM after 48 hrs by Western blot analysis; type: functional, cell-based
Pyruvate kinase PKM [11] = target: T1, Pyruvate kinase PKM; assay: Activation of PKM2 in human U87 cells assessed as inhibition of STAT3 protein expression at 1 to 2 uM after 24 hrs by Western blot analysis; type: cell-based; details: U-87MG ATCC
Pyruvate kinase PKM [12] = target: T1, Pyruvate kinase PKM; assay: Activation of PKM2 in human U87 cells assessed as inhibition of STAT3 phosphorylation at 1 to 2 uM after 24 hrs by Western blot analysis; type: cell-based; details: U-87MG ATCC
Pyruvate kinase PKM [13] = target: T1, Pyruvate kinase PKM; assay: Activation of PKM2 in human U118MG cells assessed as inhibition of STAT3 phosphorylation at 1 to 2 uM after 24 hrs by Western blot analysis; type: cell-based
Pyruvate kinase PKM [14] = target: T1, Pyruvate kinase PKM; assay: Activation of PKM2 in human U118MG cells assessed as increase in E-cadherin expression at 1 to 2 uM after 24 hrs by Western blot analysis; type: cell-based
Pyruvate kinase PKM [15] = target: T1, Pyruvate kinase PKM; assay: Activation of PKM2 in human U118MG cells assessed as reduction in vimentin expression at 1 to 2 uM after 24 hrs by Western blot analysis; type: cell-based
Pyruvate kinase PKM [16] = target: T1, Pyruvate kinase PKM; assay: Activation of PKM2 in human U87 cells assessed as reduction in bcl2 expression at 1 to 2 uM after 48 hrs by Western blot analysis; type: cell-based; details: U-87MG ATCC
Pyruvate kinase PKM [17] = target: T1, Pyruvate kinase PKM; assay: Activation of PKM2 in human U118MG cells assessed as reduction in bcl-xl expression at 1 to 2 uM after 48 hrs by Western blot analysis; type: cell-based
Pyruvate kinase PKM [18] = target: T1, Pyruvate kinase PKM; assay: Activation of PKM2 in human U87 cells assessed as inhibition of STAT3 protein expression at 5 uM after 48 hrs by Western blot analysis; type: cell-based; details: U-87MG ATCC
U-87 MG [19] = assay: Antiproliferative activity against human U87 cells transfected with lentivirus expressing shPKM2 assessed as reduction in cell viability after 24 hrs by MTT assay; type: functional, cell-based, U-87MG ATCC
U-87 MG [20] = assay: Antiproliferative activity against human U87 cells transfected with lentivirus expressing shNC assessed as reduction in cell viability after 24 hrs by MTT assay; type: functional, cell-based, U-87MG ATCC
U-87 MG [21] = assay: Induction of apoptosis in human U87 cells transfected with lentivirus expressing shNC assessed as late apoptotic cells after 48 hrs by Annexin-V-FITC/PI-staining based flow cytometric analysis (reference value: 0.608%); type: functional, U-87MG ATCC
U-87 MG [22] = assay: Induction of apoptosis in human U87 cells transfected with lentivirus expressing shNC assessed as necrotic cells after 48 hrs by Annexin-V-FITC/PI-staining based flow cytometric analysis (reference value: 0.319%); type: functional, U-87MG ATCC
U-118-MG [23] = assay: Induction of apoptosis in human U118MG cells transfected with lentivirus expressing shNC assessed as early apoptotic cells after 48 hrs by Annexin-V-FITC/PI-staining based flow cytometric analysis (reference value: 2.56%); type: functional
U-118-MG [24] = assay: Induction of apoptosis in human U118MG cells transfected with lentivirus expressing shNC assessed as necrotic cells after 48 hrs by Annexin-V-FITC/PI-staining based flow cytometric analysis (reference value: 0.418%); type: functional
U-118-MG [25] = assay: Induction of apoptosis in human U118MG cells transfected with lentivirus expressing shPKM2 assessed as viable cells after 48 hrs by Annexin-V-FITC/PI-staining based flow cytometric analysis (reference value: 97.7%); type: functional
U-118-MG [26] = assay: Induction of apoptosis in human U118MG cells transfected with lentivirus expressing shPKM2 assessed as necrotic cells after 48 hrs by Annexin-V-FITC/PI-staining based flow cytometric analysis (reference value: 0.105%); type: functional
U-87 MG [27] = assay: Antimigratory activity against human U87 cells transfected with lentivirus expressing shPKM2 at 2 uM incubated for 48 hrs by crystal violet staining based transwell assay; type: functional, cell-based; details: U-87MG ATCC
U-118-MG [28] = assay: Antimigratory activity against human U118MG cells transfected with lentivirus expressing shPKM2 at 2 uM incubated for 48 hrs by crystal violet staining based transwell assay; type: functional, cell-based
U-87 MG [29] = assay: Antiinvasive activity against human U87 cells transfected with lentivirus expressing shPKM2 at 2 uM incubated for 48 hrs by crystal violet staining based transwell assay; type: functional, cell-based; details: U-87MG ATCC
U-118-MG [30] = assay: Induction of apoptosis in human U118MG cells assessed as early apoptotic cells after 48 hrs by Annexin-V-FITC/PI-staining based flow cytometric analysis (reference value: 1.35%); type: functional
U-118-MG [31] = assay: Induction of apoptosis in human U118MG cells assessed as late apoptotic cells after 48 hrs by Annexin-V-FITC/PI-staining based flow cytometric analysis (reference value: 0.616%); type: functional
U-87 MG [32] = assay: Induction of apoptosis in human U87 cells assessed as early apoptotic cells after 48 hrs by Annexin-V-FITC/PI-staining based flow cytometric analysis (reference value: 4.91%); type: functional, U-87MG ATCC
U-87 MG [33] = assay: Induction of apoptosis in human U87 cells assessed as necrotic cells after 48 hrs by Annexin-V-FITC/PI-staining based flow cytometric analysis (reference value: 0.1%); type: functional, U-87MG ATCC
Pyruvate kinase PKM [34] = target: T1, Pyruvate kinase PKM; assay: Binding affinity to recombinant human N-terminal 6His-tagged PKM2 expressed in Escherichia coli BL21 cells assessed as increase in thermal stability of enzyme at melting temperature of 42 to 56 degC at 10 to 50 uM by western blot analysis
U-87 MG [35] = assay: Antimigratory activity against human U87 cells transfected with lentivirus expressing shNC at 2 uM incubated for 48 hrs by crystal violet staining based transwell assay; type: functional, cell-based; details: U-87MG ATCC

C=C1C(=O)O[C@H]2[C@H]1CC/C(C(=O)OCCOCCOC(=O)/C1=C/CC[C@@]3(C)O[C@H]3[C@H]3OC(=O)C(=C)[C@@H]3CC1)=C\CC[C@@]1(C)O[C@@H]21
IC50 (U-87 MG [1]): 3.03 µM | IC50 (SF-126): 7.49 µM | IC50 [2]: 5.24 µM | IC50 (SUM-159-PT): 2.82 µM | Activity (U-87 MG [3]): Active | Activity (U-118-MG [4]): Active | inhibition (Pyruvate kinase PKM [5]): Active | inhibition (Pyruvate kinase PKM [6]): Active | Activity (Pyruvate kinase PKM [7]): Active | Activity (U-87MG ATCC [8]): inactive | Activity (U-87MG ATCC [9]): inactive | Activity (U-118-MG [10]): inactive | Activity (Pyruvate kinase PKM [11]): Active | Activity (Pyruvate kinase PKM [12]): Active | Activity (Pyruvate kinase PKM [13]): Active | Activity (Pyruvate kinase PKM [14]): Active | Activity (Pyruvate kinase PKM [15]): Active | Activity (Pyruvate kinase PKM [16]): Active | Activity (Pyruvate kinase PKM [17]): Active | Activity (Pyruvate kinase PKM [18]): Active | IC50 (U-87 MG [19]): 1.76 µM | IC50 (U-87 MG [20]): 7.39 µM | Activity (U-87 MG [21]): 3.62% | Activity (U-87 MG [22]): 1.24% | Activity (U-118-MG [23]): 47.1% | Activity (U-118-MG [24]): 1.85% | Activity (U-118-MG [25]): 92.8% | Activity (U-118-MG [26]): 0.09% | Activity (U-87 MG [27]): inactive | Activity (U-118-MG [28]): inactive | Activity (U-87 MG [29]): inactive | Activity (U-118-MG [30]): 39.4% | Activity (U-118-MG [31]): 42.1% | Activity (U-87 MG [32]): 24.4% | Activity (U-87 MG [33]): 0.256% | Activity (Pyruvate kinase PKM [34]): Active | Activity (U-87 MG [35]): Active
